Series [1] has as its system human MDA-MB-231 breast cancer cells. Put plainly: Orthotopic breast tumor growth in athymic nude mice. The series is classed as in vivo, mouse. Particulars: for tumor growth: 10 mg/kg/day, athymic nude mice, orthotopic model; for ED50 values for tumor growth inhibition: expected from the 10 mg/kg/day result. As to the method:
FIGS. 12A-12C graphically illustrate mammary tumor volume in an athymic nude mouse xenograft model using human MDA-MB-231 breast cancer cells treated with 4-hydroxy C-DIM analogs (10 mg/kg/day) (black) relative to a control (gray), according to embodiments of the present disclosure;

Series [2] relates to NR4A1, Rab4, AMPK. The series can be described thus: Western blots of whole cell lysates of C2C12 muscle cells. The format is cell-based, murine. The note with it: western blot. From the text: FIGS. 25A-25D are images of western blots of whole cell lysates of C2C12 cells treated with C-DIM analogs, according to embodiments of the present disclosure;
(§1) There is also evidence that NR4A1 plays a role in enhancing glucose metabolism in muscle and this is consistent with potential anti-diabetic activity for NR4A1 ligands which has previously been reported for cytosporone-derived NR4A1 ligands in mouse models. Initial studies with DIM-C-pPhOH and second generation substituted analogs used C2C12 muscle cells as a model for investigating the anti-diabetic activity of these compounds. FIGS. 25A-25D illustrate that NR4A1 is expressed in C2C12 cells and treatment with C-DIM8 (DIM-C-pPhOH) or the second generation substituted C-DIM8 analogs 3,5-dibromo-(C-DIM8-3,5-Br2), 3-chloro-(C-DIM8-3-Cl), and 3-chloro-5-methoxy-(C-DIM8-3-Cl-5-OCH3) increased expression of NR4A1 in C2C12 cells.

The nature of series [3]: Blood glucose in C57BL/6 mice on a high-fat diet. The format is in vivo, mouse.
The subject of series [4] is RMS xenograft tumor. The series can be described thus: RMS mouse xenograft tumor growth.
Series [5] deals with G6Pase and PEPCK. The series can be described thus: G6Pase and PEPCK in glucose-starved HepG2 cells. The series is classed as cell-based.
Series [6] relates to GAL4-NR4A2. Put plainly: GAL4-NR4A2/UAS-Luc transactivation (luciferase) in Panc1 cells. The series is classed as cell-based. From the text:
(§2) FIG. 2 graphically illustrates luciferase activity in Panc1 cells transfected with GAL4-NR4A1 and GAL4-NR4A2 and UAS-Luc (GAL4-binding luciferase construct) treated with 4-, 3- and 2-hydroxy C-DIM analogs according to embodiments of the present disclosure;
FIG. 13 graphically illustrates luciferase activity in Panc1 cells transfected with GAL4-NR4A2 and UAS-Luc treated with 3-hydroxy C-DIM analogs, according to embodiments of the present disclosure;
FIG. 15 graphically illustrates luciferase activity in Panc1 cells transfected with GAL4-NR4A2 and UAS-Luc treated with 2-hydroxy C-DIM analogs, according to embodiments of the present disclosure;

Series [7] deals with SERPINB5. The series can be described thus: SERPINB5 induction (western blot) in SKBR3 breast cancer cells. The series is classed as cell-based. The note with it: for potency order for inducing SERPINB5: western blot, FIGS. 3 and 5. The text has this: FIG. 5 includes images of western blots of SKBR3 (breast) cancer cells treated with 4-, 3- and 2-hydroxy C-DIM compounds, according to embodiments of the present disclosure, showing up-regulation of expression of SERPINB5;
In this study, the DMSO (control) value was relatively high, resulting in low induction by the 4-hydroxy compound, whereas in other experiment induction was observed due to lower basal SERPINB5 levels.
Background: In western blotting, separated proteins are transferred to a membrane and probed.

Series [8] deals with β1-integrin and TXNDC5. Put plainly: Western blot down-regulation of β1-integrin and TXNDC5 in Panc1 and SKBR3 cells. The series is classed as cell-based. The note with it: FIG. 3. The text has this:
FIG. 3 includes images of western blots of Panc1 (pancreatic) and SKBR3 (breast) cancer cells treated with monohydroxy C-DIM compounds, according to embodiments of the present disclosure, showing down-regulation of expression of two NR4A1-dependent factors, β1-integrin and TXNDC5;
Compared to the 4-bromo standard NR4A2 ligand, the 3- and 2-hydroxy isomers had minimal NR4A2 activity. […] The results correlate with the transactivation data.

The test system of series [9] is GAL4-NR4A1. Put plainly: GAL4-NR4A1/UAS-Luc transactivation (luciferase) in Panc1 cells. The format is cell-based.
Excerpt: as §2
Therefore, nine substituted 4-hydroxy analogs were synthesized to investigate their relative potencies as NR4A1 ligands and their half-lives since some of the substituents buttress the hydroxy group. Their effects on activation/inactivation of GAL4-NR4A1 and GAL4-NR4A2 in Panc1 cells were determined (see FIGS. 9 and 13).

Series [10] has as its target T1, NR4A2 LBD (Homo sapiens, UniProt P43354).
T1 construct: Purified NR4A1 and NR4A2 LBD proteins were covalently immobilized
The series can be described thus: Surface plasmon resonance binding, immobilized NR4A2 LBD. The note with it: 5 or 10 μM ligand, 25° C., Biacore 3000, CM5 chip. The protocol: (§3) Binding experiments were performed using the SPR method at 25° C. on Biacore 3000 system (GE Healthcare). Purified NR4A1 and NR4A2 LBD proteins were covalently immobilized on CM5 sensor chip (GE) using an amine coupling procedure. Alternatively, the more expensive his-tag-binding NTA sensor chip (GE) can be used to insure correct protein surface orientation. SPR response curves (sensorgrams) were generated after ligand injection using 5 or 10 μM DIM-C-pPhX analogs with X=Br (#2), X═OH (#8), X═CN (#10) and X═CO2Me (#14) (see FIG. 22).
On the technique in general: Surface plasmon resonance follows binding to a sensor surface in real time, without labels.

Series [11] addresses T2, NR4A1 LBD (Homo sapiens, UniProt P22736).
T2 construct: Purified NR4A1 and NR4A2 LBD proteins were covalently immobilized
The series can be described thus: Surface plasmon resonance binding, immobilized NR4A1 LBD. The note with it: 5 or 10 μM ligand, 25° C., Biacore 3000, CM5 chip. As to the method:
as §3

Series [12] relates to TXNDC5 and PAX3-FOX01A. Put plainly: Western blot of NR4A1-regulated gene products in Rh30 rhabdomyosarcoma cells. The format is cell-based. Particulars: 20 μM. The text has this:
FIG. […]
The effects of the 4-hydroxy reference compound and the nine analogs were compared with respect to down-regulation of two NR4A1-regulated gene products in Rh30 rhabdomyosarcoma cells, namely TXNDC5 and PAX3-FOX01A. […] The results also indicate that NR4A1-dependent transactivation assays appear to be less predictive than NR4A1-regulated gene products in determining differences in NR4A1 antagonist potencies.

The test system of series [13] is cancer cell lines. Particulars: cited from earlier work.
Series [14] relates to C2C12 cells. Put plainly: Glucose uptake in C2C12 cells. The format is cell-based, murine. Particulars: 15 and 20 μM. The text has this: FIG. 27 graphically illustrates glucose uptake in C2C12 cells treated with C-DIM analogs, according to embodiments of the present disclosure;
For series [15] the following is noted: cited from earlier work.
Series [16] concerns NR4A1 and GLUT-4 gene expression. The series can be described thus: NR4A1/GLUT-4 mRNA expression in C2C12 cells. The series is classed as cell-based, murine.
Excerpt: FIGS. 26A-26D graphically illustrate relative NR4A1/glucose transporter 4 (GLUT-4) mRNA expression in C2C12 cells treated with C-DIM analogs, according to embodiments of the present disclosure;
as §1

Series [17] deals with tumor growth. The note with it: cited from earlier work.
Series [18] relates to SERPINB5. The series can be described thus: SERPINB5 induction (western blot) in Panc1 cells. The series is classed as cell-based. Particulars: 20 μM.
Series [19] deals with NR4A1 (Homo sapiens, UniProt P22736). Put plainly: NR4A1 binding affinity of the 4-hydroxy compound.
Sequence of NR4A1 (P22736 whole entry, species assumed): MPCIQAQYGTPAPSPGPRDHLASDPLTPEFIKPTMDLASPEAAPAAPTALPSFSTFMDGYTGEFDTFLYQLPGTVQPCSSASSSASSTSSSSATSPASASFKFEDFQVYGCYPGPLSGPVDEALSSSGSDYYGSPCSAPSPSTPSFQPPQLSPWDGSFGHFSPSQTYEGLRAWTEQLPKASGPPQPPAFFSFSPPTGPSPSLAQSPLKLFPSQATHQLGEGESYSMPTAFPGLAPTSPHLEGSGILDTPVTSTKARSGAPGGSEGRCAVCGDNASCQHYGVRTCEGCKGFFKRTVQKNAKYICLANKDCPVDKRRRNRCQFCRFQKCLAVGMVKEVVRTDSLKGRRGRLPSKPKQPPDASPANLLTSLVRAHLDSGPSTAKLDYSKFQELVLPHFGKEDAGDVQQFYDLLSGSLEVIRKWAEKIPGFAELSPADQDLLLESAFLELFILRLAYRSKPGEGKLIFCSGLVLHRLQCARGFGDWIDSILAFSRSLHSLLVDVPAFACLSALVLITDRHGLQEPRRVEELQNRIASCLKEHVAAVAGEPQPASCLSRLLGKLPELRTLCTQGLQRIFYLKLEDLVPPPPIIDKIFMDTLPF
The test system of series [20] is PFKM, PGAM2, BPGM, PYGM. The series can be described thus: mRNA expression of glycolytic genes in C2C12 cells. The format is cell-based, murine. The text has this: FIGS. 28A-28E graphically illustrate relative mRNA expression of glycolytic genes in C2C12 cells treated with DIM-C-pPhOH (A), DIM-C-pPhOH-3,5-Br2 (B), DIM-C-pPhOH-3-Cl (C), and DIM-C-pPhOH-3-Cl-5-OCH3 (D) for 24 hr, or cells were transfected with NR4A1 expression plasmid (E);
Overexpression of NR4A1 in C2C12 cells induces several genes involved in glycolysis including phosphofructokinase (PFKM), phosphoglycerate mutase 2 (PGAM2), bisphosphoglycerated mutase (BPGM), and glycogen phosphorylase M (PYGM).

“Also recorded” adds a separate entry of the source.

T2 sequence (P22736 360-595 limits assumed, species assumed): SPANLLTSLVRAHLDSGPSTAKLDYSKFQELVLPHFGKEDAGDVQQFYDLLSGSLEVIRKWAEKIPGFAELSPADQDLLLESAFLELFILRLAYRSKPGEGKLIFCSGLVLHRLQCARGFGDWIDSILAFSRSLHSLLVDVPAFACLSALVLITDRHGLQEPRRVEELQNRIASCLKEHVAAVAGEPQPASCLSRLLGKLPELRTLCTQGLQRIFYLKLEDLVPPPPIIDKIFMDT
T1 sequence (P43354 360-595 limits assumed, species assumed): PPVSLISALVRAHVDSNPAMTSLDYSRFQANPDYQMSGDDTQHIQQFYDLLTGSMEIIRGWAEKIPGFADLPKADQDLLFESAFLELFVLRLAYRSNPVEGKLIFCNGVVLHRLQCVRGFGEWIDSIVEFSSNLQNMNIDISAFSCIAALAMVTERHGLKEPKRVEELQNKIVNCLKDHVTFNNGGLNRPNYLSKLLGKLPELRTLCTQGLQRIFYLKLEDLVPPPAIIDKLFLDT

As for `COc1cc(C(c2c[nH]c3ccccc23)c2c[nH]c3ccccc23)cc(Cl)c1O` [C-DIM8-3-Cl-5-OCH3], in series [1], the tumor growth entry is on record as “inhibited tumor growth” and the “ED50 values for tumor growth inhibition” value is “low mg/kg/day or high μg/kg/day range”. In addition, the “expression of NR4A1” value in series [2] is listed as “increased”. In addition, the “serum glucose levels in a glucose tolerance test compared to control animals” value in series [3] (10 mg/kg/d) is reported as “decreased”. Further, in series [3] (25 mg/kg/d, current study), the serum glucose entry is “decreased” and the serum insulin levels result is “increased”. Moreover, in [3] (HFD C57BL/6 mice, 10 mg/kg/d in corn oil, every second day, oral gavage), the blood glucose levels result is listed as “significant decrease”.
Take `Oc1ccc(C(c2c[nH]c3ccccc23)c2c[nH]c3ccccc23)cc1Cl` [C-DIM8-3-Cl]: in series [1], the tumor growth entry is listed as “inhibited tumor growth” and the “ED50 values for tumor growth inhibition” value is “low mg/kg/day or high μg/kg/day range”. The “expression of NR4A1” value in series [2] was “increased”.
Take `Oc1c(Br)cc(C(c2c[nH]c3ccccc23)c2c[nH]c3ccccc23)cc1Br` [C-DIM8-3,5-Br2]: in series [1], the tumor growth result is listed as “inhibited tumor growth” and the “ED50 values for tumor growth inhibition” value is on record as “low mg/kg/day or high μg/kg/day range”. The “expression of NR4A1” value in series [2] is reported as “increased”. In addition, in series [4] (0.25 mg/kg/d), the RMS tumor growth result is “tumor growth inhibition”. For the same compound, the RMS tumor growth entry in [4] (doses of 10.0, 7.5, 5.0 and 2.5 mg/kg/day) was “complete tumor growth inhibition”. The toxicity result in series [4] (in vivo study, RMS xenograft) is “not observed”. Also, in [5], the “G6Pase and PEPCK mRNA levels” value is listed as “inhibit”.
`Oc1ccccc1C(c1c[nH]c2ccccc12)c1c[nH]c2ccccc12` [2-hydroxy compound]: the “NR4A2 activity (GAL4-NR4A2) compared to the 4-bromo reference” value in series [6] is given as “minimal”. The “potency order for inducing SERPINB5” value in series [7] is recorded as 2-OH/3-OH>4-OH. The “potency in down-regulation of β1-integrin and TXNDC5 vs the 4-hydroxy compound” value in series [8] is recorded as “more potent”.
`Oc1ccc(C(c2c[nH]c3ccccc23)c2c[nH]c3ccccc23)cc1F` [3-fluoro-4-hydroxy analog]: the “potency as inhibitors of NR4A1-dependent transactivation relative to the 4-hydroxy reference compound” value in series [9] (tested at 7.5 μM and 15 μM) is on record as “exception”.
Take `Brc1ccc(C(c2c[nH]c3ccccc23)c2c[nH]c3ccccc23)cc1` [DIM-C-pPhBr, 1,1-bis(3′-indolyl)-1-(p-bromophenyl)methane]: the “SPR binding to NR4A2” value in series [10] is “sticky interactions”. Besides, in series [11], the “SPR binding to NR4A1” value was “sticky interactions”.
Regarding `Oc1ccc(C(c2c[nH]c3ccccc23)c2c[nH]c3ccccc23)cc1` [DIM-C-pPhOH], the “concentration at which significant inhibition of GAL4-NR4A1 transactivation was observed” value in series [9] (not at 15 μM (steep dose response curve)) turned out to be 22.5 µM. Besides, the “decreased expression of TXNDC5 and PAX3-FOX01A” value in [12] is 50-60%. The “expression of NR4A1” value in [2] was “increased”. The “receptor-independent activities such as mitochondrial toxicity” value in series [13] (cancer cell lines) is reported as “minimal”. For the same compound, the “concentrations that block the pro-oncogenic pathways” value in [13] (cell culture) is 10 to 20 µM. For the same compound, in [14], the glucose uptake result is on record as “significantly induced”. For the same compound, the in vivo half-life result in [15] is “short; also recorded: very short”. The serum half-life result in series [15] (in vivo) is “relatively short”. In series [16], the “NR4A1 and GLUT-4 gene expression” value is reported as “induce”; the “concentration of maximal induction of NR4A1 and GLUT-4 gene expression” value worked out at 20 µM. The “SPR binding to NR4A1” value in series [11] is “bound with high affinity”. For the same compound, the “partial tumor growth inhibition” value in [17] (30-40 mg/kg/day, previous studies) is 40-50%. Moreover, in [17] (mouse, in vivo), the “doses at which tumor growth is (partially) inhibited” value was 30 to 40 mg/kg/day and the “doses at which tumor growth is only partially inhibited” value was 40 to 50 mg/kg/day. Further, the “induction of SERPINB5” value in series [18] is “induced SERPINB5”. Moreover, the “induction of SERPINB5” value in series [7] (SKBR3 cells, 20 μM, DMSO control value relatively high) was “minimally induced”. Also, the “potency order for inducing SERPINB5” value in series [7] is 2-OH/3-OH>4-OH. Moreover, the “binding to NR4A1” value in [19] was “high affinity”. The “G6Pase and PEPCK mRNA levels” value in series [5] is “inhibit”.
As for `CN(C)C(=N)N=C(N)N` [metformin], the “expression of glycolytic genes PFKM, PGAM2, BPGM, PYGM” value in series [20] is listed as “significantly induced”. Further, in series [16], the “NR4A1 and GLUT-4 gene expression” value is “induce”.
As for `Oc1cccc(C(c2c[nH]c3ccccc23)c2c[nH]c3ccccc23)c1Br` [2 bromo (3-hydroxy analog)], the “potency in NR4A1-dependent transactivation vs unsubstituted 3- and 4-hydroxy DIM standards” value in series [9] (substituted 3-hydroxy DIM analogs, FIG. 7) was “more potent”.
In the case of `Oc1cccc(C(c2c[nH]c3ccccc23)c2c[nH]c3ccccc23)c1` [3-hydroxy compound], the “NR4A2 activity (GAL4-NR4A2) compared to the 4-bromo reference” value in [6] is reported as “minimal”. Besides, the “potency order for inducing SERPINB5” value in series [7] is 2-OH/3-OH>4-OH. In addition, the “potency in down-regulation of β1-integrin and TXNDC5 vs the 4-hydroxy compound” value in series [8] is “more potent”.

The values are drawn from patent US12264150B2, “NR4A1 ligands, pharmaceutical compositions, and related methods of use” (The Texas A&M University System, priority 2017, dated 2025).
